Values quoted from earlier work, collected in patent US12270126B2, “Wound dressing” (University of Central Oklahoma, priority 2019, dated 2025).

Legend:
[1] = tested on: E. coli
[2] = tested on: Saccharomyces cerevisiae
[3] = tested on: Bacillus subtilis (B. subtilis)
[4] = tested on: Methicillin-resistant S. aureus (MRSA)

Measured: inhibitory effect on microorganism

Cc1ccc(C(C)C)c(O)c1 [thymol]
inhibitory effect: all assays above

Cc1ccc(C(C)C)cc1O [carvacrol]
inhibitory effect: all assays above
